Laboratory results as given in US20070010438A1, “Tumor treatment using beta-sheet peptides and radiotherapy” (priority 2005, published 2007).

Experiments:
[1] = system: intercellular adhesion molecule-1 (ICAM-1); assay: ICAM-1 expression on bFGF-treated EC (flow cytometry, Northern blot); assay type: cell-based, human; conditions: for bFGF mediated downregulation of ICAM-1: 100 μg/ml added simultaneously with 10 ng/ml bFGF, 3 days
Method: In a first series of experiments, PF4 and βpep peptides were tested for their ability to prevent bFGF (fibroblast growth factor) mediated downregulation of ICAM-1. […] Simultaneously 100 μg/ml of each PF4, βpep-14, βpep-16, or medium was added. Mean ICAM-1 fluorescence intensity values were determined.
Since the in vivo situation of tumor-associated EC involves the low expression or even absence of ICAM-1, the next set of experiments aimed to study the ability to re-induce ICAM-1 expression after bFBF preincubation. […] In these experiments, HUVEC were pretreated for 3 days with bFGF, subsequently PF4 was added for 3 days and, where indicated in the last 16 hours of culture 4 ng/ml TNF(X was added. Human umbilical vein derived endothelial cells (HUVEC) were harvested from normal human umbilical cords by perfusion with 0.125% trypsin/EDTA. Cells were cultured in fibronectin (FN) coated tissue culture flasks in culture medium (RPMI-1640 with 20% human serum (HS), supplemented with 2 mM glutamine and 100 U/ml penicillin and 0.1 mg/ml streptomycin). Immunofluorescence using indirect PE-conjugated reagents required three separate incubations. 1×10^5 EC were fixed for 1 hour in 1% paraformaldehyde, resuspended in 20 μl appropriately diluted Mab and incubated for 1 hour on ice. Subsequently, cells were washed two times in PBS/BSA (0.1%) and incubated for another 30 minutes with biotinylated rabbit-anti-mouse Ig (Dako, Glostrup, Denmark). After another 2 washings, cells were incubated with streptavidin-phycoerythrin conjugate (Dako). Stained cells were analyzed on a FACScan flowcytometer. Data analysis was performed using PCLysys software (Becton Dickinson, Mountain View, Calif.). Statistical significance of observed differences was determined using the Student's t-test.
The anergy of EC to stimulation with inflammatory cytokines was the subject of additional experiments. For these experiments, HUVEC (human vascular endothelial cells) were pretreated with 10 ng/ml bFGF for 3 days. Subsequently, cells are subcultured for 3 days with […] in the presence of PF4. For the last 16 hours of the culture 4 ng/ml TNF-α was added to induce upregulation of ICAM-1. […] The regulation of ICAM-1 at the protein level was confirmed in Northern blot analysis for detection of ICAM-1 message. In these experiments, HUVEC were cultured for 3 days with bFGF and treated for the last 4 and 24 hours with PF4 (100 μg/ml). TNF-α was added 2 hours before isolation of RNA. RNA from a subconfluent EC cultures (75 cm^2 Petri-dishes) incubated with bFGF for different time-points was isolated using an RNA-zol kit (Campro Scientific, Houston, Tex.). Total RNA (10 μg) for each sample was separated in a 0.8% formaldehyde-denaturing gel, transferred to nitrocellulose (Hybond N+, Amersham International, Amersham, UK) and hybridized to a ^32P-labelled 1.9 Kb c-DNA probe, containing the functional sequence of the human ICAM-1 gene (a gift from Dr. B. Seed). Membranes were washed at a high stringency in 0.2×SSC, 0.1% SDS at 50° C. for 1 hour. Filters were exposed to X-ray films (Kodak X-omat, Eastman Kodak Company, Rochester, N.Y.) using an intensifying screen at −80° C. for not less than 12 hours. Autoradiograms were subjected to scanning using a laser densitometer (Model GS670, Bio-Rad, Hercules, Calif.) and data were analysed with the Molecular Analyst PCTM software. The intensity of the major ICAM-1 mRNA transcript was normalized with respect to actin mRNA expression used as a control.

[2] = system: EC; assay: EC proliferation, 3[H]thymidine incorporation assay (Table 3); assay type: cell-based, human
Method: EC proliferation was measured using a ^3[H]thymidine incorporation assay. EC were seeded in flatbottomed 96-well tissue culture plates (5000 cells/well) and grown for 3 days, in culture medium. In some cultures the proliferation of EC was enhanced by incubation with 10 ng/ml bFGF. During the last 6 hours of the assay, the culture was pulsed with 0.5 μCi [methyl-3 H]thymidine/well. Results are expressed as the arithmetic mean counts per minute (cpm) of triplicate cultures.

[3] = system: HUVEC; conditions: PF4 100 μg/ml, bFGF 10 ng/ml
Method: Functional impact for the observed phenomena was provided by leukocyte/EC adhesion assays as described earlier (Griffloen et al. Cancer Res. 56, 1111-1117 (1996)). […] PHA-activated peripheral blood T lymphocyte were adhered for 1 hour at 37° C. to TNF-α (4 ng/ml), bFGF (10 ng/ml) and PF4 (100 μg/ml) treated, or control (HUVEC). Non-adhering cells were removed and adhered cells were enumerated by an inverted microscope. Values of one representative experiment out of three are expressed as numbers of adhered cells per high power field. Statistical significance is determined by the Student's t-test.

[4] = system: endothelial cell (FBHEC, HUVEC)
Method: β-sheet peptides βpep 1-24 were tested in an endothelial cell proliferation assay using ^3H-thymidine incorporation.

[5] = system: SCK tumors; assay: Radiosensitization test of SCK tumors, i.p. injections plus 10 Gy on days 0 and 1
Method: On days 0 and 1 the injections were given 2 hours prior to tumor irradiation (10 Gy each day) (Mauceri et al., Nature 394, 287-91 (1998)).
Tumor volume was determined by measuring the diameters of the tumor using metric-scale calipers (Scienceware; Pequannock, N.J.) and solving the equation to determine the volume of a spheroid: (a^2×b×Π)/6, where ‘a’ is the width and ‘b’ is the length of the tumor.
Growth delay was calculated by subtracting the average time for control tumors to grow three-fold in volume from the time required for treated tumors to increase in volume by 3-fold from the day of radiation.

[6] = first expt 2, 1 μg/ml, 10 ng/ml bFGF, medium 29079 ± 2506
[7] = first expt 2, 1 μg/ml, no bFGF, medium 14296 ± 2490
[8] = first expt 2, 10 μg/ml, 10 ng/ml bFGF, medium 29079 ± 2506
[9] = first expt 2, 10 μg/ml, no bFGF, medium 14296 ± 2490
[10] = first expt 2, 100 μg/ml, 10 ng/ml bFGF, medium 29079 ± 2506
[11] = first expt 2, 100 μg/ml, no bFGF, medium 14296 ± 2490
[12] = second expt 2, 1 μg/ml, 10 ng/ml bFGF, medium 52808 ± 4092
[13] = second expt 2, 1 μg/ml, no bFGF, medium 6780 ± 713
[14] = second expt 2, 10 μg/ml, 10 ng/ml bFGF, medium 52808 ± 4092
[15] = second expt 2, 10 μg/ml, no bFGF, medium 6780 ± 713
[16] = second expt 2, 100 μg/ml, 10 ng/ml bFGF, medium 52808 ± 4092
[17] = second expt 2, 100 μg/ml, no bFGF, medium 6780 ± 713

**Q.** Which “bFGF mediated downregulation of ICAM-1” value [1] does the source give for “SIQDLNVSMKLFRKQAKWKLIVKLNDGRELSLD [βpep-14]” here?
**A.** complete block of bFGF-mediated downregulation

**Q.** And the “angiostatic as determined by EC proliferation in vitro” value [2]?
**A.** angiostatic

**Q.** What about the “EC proliferation, (3H)-thymidine incorporation” value [2, 6] of the same compound?
**A.** 28695 ± 1062 cpm

**Q.** What about the “EC proliferation, (3H)-thymidine incorporation” value [2, 7] of the same compound?
**A.** 14184 ± 1775 cpm

**Q.** What about the “EC proliferation, (3H)-thymidine incorporation” value [2, 8] of the same compound?
**A.** 29530 ± 1608 cpm

**Q.** What about the “EC proliferation, (3H)-thymidine incorporation” value [2, 9] of the same compound?
**A.** 9886 ± 2114 cpm

**Q.** What about the “EC proliferation, (3H)-thymidine incorporation” value [2, 10] of the same compound?
**A.** 6585 ± 132 cpm

**Q.** What about the “EC proliferation, (3H)-thymidine incorporation” value [2, 11] of the same compound?
**A.** 3774 ± 299 cpm

**Q.** And the “EC proliferation, (3H)-thymidine incorporation” value [2, 12]?
**A.** 48443 ± 2700 cpm

**Q.** And the “EC proliferation, (3H)-thymidine incorporation” value [2, 13]?
**A.** 7214 ± 1668 cpm

**Q.** And the “EC proliferation, (3H)-thymidine incorporation” value [2, 14]?
**A.** 52126 ± 1258 cpm

**Q.** What about the “EC proliferation, (3H)-thymidine incorporation” value [2, 15] of the same compound?
**A.** 6074 ± 899 cpm

**Q.** And the “EC proliferation, (3H)-thymidine incorporation” value [2, 16]?
**A.** 7663 ± 715 cpm

**Q.** And the “EC proliferation, (3H)-thymidine incorporation” value [2, 17]?
**A.** 1062 ± 325 cpm

**Q.** Which “bFGF mediated downregulation of ICAM-1” value [1] does the source give for “SIQDLNVSMKLFRKQAKWKIIAKLNDGRELSLD [βpep-16]” here?
**A.** complete block of bFGF-mediated downregulation

**Q.** What about the “angiostatic as determined by EC proliferation in vitro” value [2] of the same compound?
**A.** angiostatic

**Q.** And the “EC proliferation, (3H)-thymidine incorporation” value [2, 6]?
**A.** 35447 ± 2621 cpm

**Q.** What about the “EC proliferation, (3H)-thymidine incorporation” value [2, 7] of the same compound?
**A.** 15039 ± 2020 cpm

**Q.** And the “EC proliferation, (3H)-thymidine incorporation” value [2, 8]?
**A.** 33663 ± 2572 cpm

**Q.** What about the “EC proliferation, (3H)-thymidine incorporation” value [2, 9] of the same compound?
**A.** 11881 ± 2545 cpm

**Q.** What about the “EC proliferation, (3H)-thymidine incorporation” value [2, 10] of the same compound?
**A.** 7852 ± 875 cpm

**Q.** What about the “EC proliferation, (3H)-thymidine incorporation” value [2, 11] of the same compound?
**A.** 4929 ± 749 cpm

**Q.** And the “EC proliferation, (3H)-thymidine incorporation” value [2, 12]?
**A.** 47727 ± 447 cpm

**Q.** And the “EC proliferation, (3H)-thymidine incorporation” value [2, 13]?
**A.** 7450 ± 737 cpm

**Q.** And the “EC proliferation, (3H)-thymidine incorporation” value [2, 14]?
**A.** 44919 ± 2081 cpm

**Q.** What about the “EC proliferation, (3H)-thymidine incorporation” value [2, 15] of the same compound?
**A.** 6148 ± 1370 cpm

**Q.** What about the “EC proliferation, (3H)-thymidine incorporation” value [2, 16] of the same compound?
**A.** 27071 ± 3277 cpm

**Q.** And the “EC proliferation, (3H)-thymidine incorporation” value [2, 17]?
**A.** 2669 ± 370 cpm

**Q.** What does the source list for Platelet Factor 4 [PF4]?
**A.** bFGF mediated downregulation of ICAM-1 [1]: did not result in the loss of ICAM-1 expression; expression of ICAM-1 ([1]; 100 μg/ml alone): enhanced the expression of ICAM-1; re-induction of ICAM-1 expression after bFGF preincubation ([1]; HUVEC pretreated 3 days with bFGF, then 100 μg/ml for 3 days in the presence of bFGF): reinduction of ICAM-1; decreased inflammatory response (TNF-α induced ICAM-1) of angiogenic stimulated EC ([1]; bFGF-pretreated HUVEC, 4 ng/ml TNF-α for the last 16 hours): overcome; bFGF mediated inhibition of leukocyte adhesion to cultured HUVEC [3]: completely abolished; EC proliferation, (3H)-thymidine incorporation ([2]; expt 1, 1 μg/ml, 10 ng/ml bFGF, medium 28815 ± 1007): 28782 ± 815 cpm; EC proliferation, (3H)-thymidine incorporation ([2]; expt 1, 1 μg/ml, no bFGF, medium 4044 ± 206): 4656 ± 456 cpm; EC proliferation, (3H)-thymidine incorporation ([2]; expt 1, 10 μg/ml, 10 ng/ml bFGF, medium 28815 ± 1007): 23868 ± 402 cpm; EC proliferation, (3H)-thymidine incorporation ([2]; expt 1, 10 μg/ml, no bFGF, medium 4044 ± 206): 4066 ± 351 cpm; EC proliferation, (3H)-thymidine incorporation ([2]; expt 1, 100 μg/ml, 10 ng/ml bFGF, medium 28815 ± 1007): 4655 ± 421 cpm; EC proliferation, (3H)-thymidine incorporation ([2]; expt 1, 100 μg/ml, no bFGF, medium 4044 ± 206): 1651 ± 172 cpm; EC proliferation, (3H)-thymidine incorporation [2, 12]: 43524 ± 5318 cpm; EC proliferation, (3H)-thymidine incorporation [2, 13]: 6171 ± 1227 cpm; EC proliferation, (3H)-thymidine incorporation [2, 14]: 8337 ± 704 cpm; EC proliferation, (3H)-thymidine incorporation [2, 15]: 3547 ± 317 cpm; EC proliferation, (3H)-thymidine incorporation [2, 16]: 1654 ± 375 cpm; EC proliferation, (3H)-thymidine incorporation [2, 17]: 947 ± 170 cpm

**Q.** How did the “cell proliferation activity (control of endothelial cell proliferation)” value [4] turn out when “SIQFLKVSLNLDRKQAKWKIIVKLNDGRELSLD [βpep-24]” was run?
**A.** very good at controlling cell proliferation

**Q.** How did the “cell proliferation activity (control of endothelial cell proliferation)” value [4] turn out when “ANIKLSVEMKLFKRHLKWKIIVKLNDGRELSLD [βpep-8]” was run?
**A.** little cell proliferation activity

**Q.** What does the source list for “interferon-γ inducible protein-10 [IP-10]”?
**A.** effect on ICAM-1 expression, other inhibitors of angiogenesis [1]: the same results; EC proliferation, (3H)-thymidine incorporation ([2]; expt 3, 100 μg/ml, 10 ng/ml bFGF, medium 3432 ± 232): 725 ± 95 cpm

**Q.** Which “effect on ICAM-1 expression, other inhibitors of angiogenesis” value [1] does the source give for thrombospondin-1 [TSP-1] here?
**A.** the same results

**Q.** What about the “EC proliferation, (3H)-thymidine incorporation” value ([2]; expt 4, 10 μg/ml, 10 ng/ml bFGF, medium 31954 ± 1220) of the same compound?
**A.** 22338 ± 860 cpm

**Q.** What about the “EC proliferation, (3H)-thymidine incorporation” value ([2]; expt 4, 10 μg/ml, no bFGF, medium 18904 ± 1501) of the same compound?
**A.** 8865 ± 639 cpm

**Q.** What about the “EC proliferation, (3H)-thymidine incorporation” value ([2]; expt 4, 25 μg/ml, 10 ng/ml bFGF, medium 31954 ± 1220) of the same compound?
**A.** 10267 ± 797 cpm

**Q.** What about the “EC proliferation, (3H)-thymidine incorporation” value ([2]; expt 4, 25 μg/ml, no bFGF, medium 18904 ± 1501) of the same compound?
**A.** 5565 ± 349 cpm

**Q.** For angiostatin, which complete responses ([5]; angiostatin 25 or 50 mg/kg i.p. combined with 10 Gy days 0 and 1) is on record?
**A.** nor did it induce any complete responses

**Q.** What about the “delay in tumor growth” value ([5]; angiostatin 25 or 50 mg/kg i.p. days -1, 0, 1 combined with 10 Gy days 0 and 1) of the same compound?
**A.** did not result in any significant delay in tumor growth

**Q.** With `O=C1CCC(N2C(=O)c3ccccc3C2=O)C(=O)N1` (stereo not shown) [thalidomide, reference compound] as the compound, how does the “effect on ICAM-1 expression, other inhibitors of angiogenesis” value [1] read?
**A.** did not affect ICAM-1 expression

**Q.** What about the “EC growth in vitro” value [2] of the same compound?
**A.** do not affect EC growth in vitro
